± gives the expanded uncertainty stated by the source.
Settings: Plate method

surface tension liquid-gas (293.15 K)	surface tension liquid-gas (298.15 K)	surface tension liquid-gas (303.15 K)	surface tension liquid-gas (308.15 K)	surface tension liquid-gas (313.15 K)	surface tension liquid-gas (318.15 K)	surface tension liquid-gas (323.15 K)	SMILES
44.56 ± 0.46 mN/m	44.32 ± 0.46 mN/m	44.11 ± 0.46 mN/m	43.88 ± 0.46 mN/m	43.63 ± 0.46 mN/m	43.42 ± 0.46 mN/m	43.18 ± 0.45 mN/m	CCCCn1cc[n+](C)c1.F[P-](F)(F)(F)(F)F [1-butyl-3-methylimidazolium hexafluorophosphate]
44.75 ± 0.46 mN/m	44.52 ± 0.46 mN/m	44.16 ± 0.46 mN/m	43.95 ± 0.46 mN/m	43.63 ± 0.46 mN/m	43.34 ± 0.46 mN/m	42.98 ± 0.45 mN/m	CCCCn1cc[n+](C)c1.F[B-](F)(F)F [1-butyl-3-methylimidazolium tetrafluoroborate]

SMILES	surface tension liquid-gas (293.15 K)	surface tension liquid-gas (298.15 K)	surface tension liquid-gas (303.15 K)	surface tension liquid-gas (308.15 K)	surface tension liquid-gas (313.15 K)	surface tension liquid-gas (318.15 K)	surface tension liquid-gas (323.15 K)
CCCC[n+]1ccn(C)c1.O=S(=O)([N-]S(=O)(=O)C(F)(F)F)C(F)(F)F	33.29 ± 0.43 mN/m	33.07 ± 0.43 mN/m	32.88 ± 0.43 mN/m	32.67 ± 0.43 mN/m	32.49 ± 0.43 mN/m	32.29 ± 0.43 mN/m	32.11 ± 0.43 mN/m

From the NIST ThermoML archive (doi:10.1016/j.jct.2018.12.036)
